The results in this text go back to patent publication US10058550B2, “Methods of treating heart failure” (priority 2015, dated 2018).

The target in this experiment is human APJ receptor (Homo sapiens (Human), UniProt P35414). The experiment can be described thus: biochemical. In kind it is biochemical. As to conditions: read-out: Activity hAPJ SPA EC50 IP. In a few lines: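 Agonist-stimulated [35S]GTPγS (0.2 nM) binding was read by SPA after 90 min at room temperature. Buffer: 20 mM HEPES pH 7.5 with 5 mM MgCl2, 200 mM NaCl, 3 μM GDP, 0.1% BSA; membranes were from a stable human APJ CHO line. EC50 values are averages of independent runs, fitted by non-linear regression.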
Chain of human APJ receptor (P35414 whole entry): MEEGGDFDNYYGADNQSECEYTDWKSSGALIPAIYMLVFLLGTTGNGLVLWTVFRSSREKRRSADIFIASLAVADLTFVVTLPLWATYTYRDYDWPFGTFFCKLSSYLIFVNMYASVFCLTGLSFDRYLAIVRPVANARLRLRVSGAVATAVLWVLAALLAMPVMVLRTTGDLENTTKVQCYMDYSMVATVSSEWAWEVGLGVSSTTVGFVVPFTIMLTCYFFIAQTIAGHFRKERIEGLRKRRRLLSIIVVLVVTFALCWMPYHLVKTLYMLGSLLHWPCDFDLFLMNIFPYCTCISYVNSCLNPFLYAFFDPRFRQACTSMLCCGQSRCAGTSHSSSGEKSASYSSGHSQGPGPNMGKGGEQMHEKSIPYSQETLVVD
The EC50 is the concentration needed to bring the measured effect to its halfway point. Turning to `COc1cccc(-c2nnc(NS(=O)(=O)[C@@H](C)[C@@H](O)C(C)(C)C)n2-c2c(OC)cccc2OC)n1` (single isomer, unassigned) [Example 435.0, (2S,3S)—N-(4-(2,6-dimethoxyphenyl)-5-(6-methoxy-2-pyridinyl)-4H-1,2,4-triazol-3-yl)-3-hydroxy-4,4-dimethyl-2-pentanesulfonamide or (2R,3R)—N-(4-(2,6-dimethoxyphenyl)-5-(6-methoxy-2-pyridinyl)-4H-1,2,4-triazol-3-yl)-3-hydroxy-4,4-dimethyl-2-pentanesulfonamide], the EC50 is 24 nM.

On to `COc1cccc(-c2nnc(NS(=O)(=O)[C@@H](C)[C@@H](O)C(C)(C)C)n2-c2c(OC)cccc2OC)n1` (single isomer, unassigned) [Example 436.0, (2S,3S)—N-(4-(2,6-dimethoxyphenyl)-5-(6-methoxy-2-pyridinyl)-4H-1,2,4-triazol-3-yl)-3-hydroxy-4,4-dimethyl-2-pentanesulfonamide or (2R,3R)—N-(4-(2,6-dimethoxyphenyl)-5-(6-methoxy-2-pyridinyl)-4H-1,2,4-triazol-3-yl)-3-hydroxy-4,4-dimethyl-2-pentanesulfonamide], for which the EC50 is 100 nM.

With `COc1cccc(-c2nnc(NS(=O)(=O)[C@@H](C)[C@H](O)C(C)(C)C)n2-c2c(OC)cccc2OC)n1` (single isomer, unassigned) [Example 437.0, (2S,3R)—N-(4-(2,6-dimethoxyphenyl)-5-(6-methoxy-2-pyridinyl)-4H-1,2,4-triazol-3-yl)-3-hydroxy-4,4-dimethyl-2-pentanesulfonamide or (2R,3S)—N-(4-(2,6-dimethoxyphenyl)-5-(6-methoxy-2-pyridinyl)-4H-1,2,4-triazol-3-yl)-3-hydroxy-4,4-dimethyl-2-pentanesulfonamide], the EC50 was 31 nM.

For the compound `COc1cccc(-c2nnc(NS(=O)(=O)[C@@H](C)[C@H](O)C3CC3)n2-c2c(OC)cccc2OC)n1` (single isomer, unassigned) [Example 439.0, (1R,2S)-1-cyclopropyl-N-(4-(2,6-dimethoxyphenyl)-5-(6-methoxy-2-pyridinyl)-4H-1,2,4-triazol-3-yl)-1-hydroxy-2-propanesulfonamide or (1S,2R)-1-cyclopropyl-N-(4-(2,6-dimethoxyphenyl)-5-(6-methoxy-2-pyridinyl)-4H-1,2,4-triazol-3-yl)-1-hydroxy-2-propanesulfonamide], the EC50 came to 110 nM.

In the case of `COc1cccc(OC)c1-n1c(NS(=O)(=O)C[C@H](O)c2ccc(Cl)cc2S(C)(=O)=O)nnc1-c1cncc(C)c1` (single isomer, unassigned) [Example 458.0, (2R)-2-(4-chloro-2-(methylsulfonyl)phenyl)-N-(4-(2,6-dimethoxyphenyl)-5-(5-methyl-3-pyridinyl)-4H-1,2,4-triazol-3-yl)-2-hydroxyethanesulfonamide or (2S)-2-(4-chloro-2-(methylsulfonyl)phenyl)-N-(4-(2,6-dimethoxyphenyl)-5-(5-methyl-3-pyridinyl)-4H-1,2,4-triazol-3-yl)-2-hydroxyethanesulfonamide], the EC50 came out at 0.16 nM.

For the compound `COc1cccc(-c2nnc(NS(=O)(=O)[C@@H](C)[C@H](OC)c3ccc(C#N)cc3C#N)n2-c2c(OC)cccc2OC)n1` (single isomer, unassigned) [Example 474.0, (1R,2S)-1-(2,4-dicyanophenyl)-N-(4-(2,6-dimethoxyphenyl)-5-(6-methoxy-2-pyridinyl)-4H-1,2,4-triazol-3-yl)-1-methoxy-2-propanesulfonamide or (1S,2R)-1-(2,4-dicyanophenyl)-N-(4-(2,6-dimethoxyphenyl)-5-(6-methoxy-2-pyridinyl)-4H-1,2,4-triazol-3-yl)-1-methoxy-2-propanesulfonamide], the EC50 was 0.35 nM.

Consider `COc1cccc(-c2nnc(NS(=O)(=O)[C@H](C)[C@H](OC)c3ccc(C#N)cc3C#N)n2-c2c(OC)cccc2OC)n1` (single isomer, unassigned) [Example 476.0, (1R,2R)-1-(2,4-dicyanophenyl)-N-(4-(2,6-dimethoxyphenyl)-5-(6-methoxy-2-pyridinyl)-4H-1,2,4-triazol-3-yl)-1-methoxy-2-propanesulfonamide or (1S,2S)-1-(2,4-dicyanophenyl)-N-(4-(2,6-dimethoxyphenyl)-5-(6-methoxy-2-pyridinyl)-4H-1,2,4-triazol-3-yl)-1-methoxy-2-propanesulfonamide], for which the EC50 was determined as 0.55 nM.

On to `COc1cccc(-c2nnc(NS(=O)(=O)C[C@@H](O)c3ccc(C#N)cc3S(C)(=O)=O)n2-c2c(OC)cccc2OC)n1` (single isomer, unassigned) [Example 482.0, (2S)-2-(4-cyano-2-(methylsulfonyl)phenyl)-N-(4-(2,6-dimethoxyphenyl)-5-(6-methoxy-2-pyridinyl)-4H-1,2,4-triazol-3-yl)-2-hydroxyethanesulfonamide or (2R)-2-(4-cyano-2-(methylsulfonyl)phenyl)-N-(4-(2,6-dimethoxyphenyl)-5-(6-methoxy-2-pyridinyl)-4H-1,2,4-triazol-3-yl)-2-hydroxyethanesulfonamide], for which the EC50 turned out to be 0.2 nM.

Take `COc1cccc(-c2nnc(NS(=O)(=O)C[C@H](OC)c3ccc(C#N)cc3S(C)(=O)=O)n2-c2c(OC)cccc2OC)n1` (single isomer, unassigned) [Example 485.0, (2R)-2-(4-cyano-2-(methylsulfonyl)phenyl)-N-(4-(2,6-dimethoxyphenyl)-5-(6-methoxy-2-pyridinyl)-4H-1,2,4-triazol-3-yl)-2-methoxyethanesulfonamide or (2S)-2-(4-cyano-2-(methylsulfonyl)phenyl)-N-(4-(2,6-dimethoxyphenyl)-5-(6-methoxy-2-pyridinyl)-4H-1,2,4-triazol-3-yl)-2-methoxyethanesulfonamide]: the EC50 came to 0.098 nM.

In the case of `COc1cccc(-c2nnc(NS(=O)(=O)C[C@H](OC)c3ccc(C#N)cc3S(C)(=O)=O)n2-c2c(OC)cccc2OC)n1` (single isomer, unassigned) [Example 486.0, (2R)-2-(4-cyano-2-(methylsulfonyl)phenyl)-N-(4-(2,6-dimethoxyphenyl)-5-(6-methoxy-2-pyridinyl)-4H-1,2,4-triazol-3-yl)-2-methoxyethanesulfonamide or (2S)-2-(4-cyano-2-(methylsulfonyl)phenyl)-N-(4-(2,6-dimethoxyphenyl)-5-(6-methoxy-2-pyridinyl)-4H-1,2,4-triazol-3-yl)-2-methoxyethanesulfonamide], the EC50 stood at 0.073 nM.

As to `COc1cccc(OC)c1-n1c(NS(=O)(=O)C[C@H](O)c2ccc(C#N)cc2S(C)(=O)=O)nnc1-c1cncc(C)c1` (single isomer, unassigned) [Example 491.0, (2R)-2-(4-cyano-2-(methylsulfonyl)phenyl)-N-(4-(2,6-dimethoxyphenyl)-5-(5-methyl-3-pyridinyl)-4H-1,2,4-triazol-3-yl)-2-hydroxyethanesulfonamide or (2S)-2-(4-cyano-2-(methylsulfonyl)phenyl)-N-(4-(2,6-dimethoxyphenyl)-5-(5-methyl-3-pyridinyl)-4H-1,2,4-triazol-3-yl)-2-hydroxyethanesulfonamide], the half-maximal effective concentration (EC50) amounted to 0.33 nM.

Regarding `COc1cccc(OC)c1-n1c(NS(=O)(=O)C[C@H](O)c2ccc(C#N)cc2S(C)(=O)=O)nnc1-c1cncc(C)c1` (single isomer, unassigned) [Example 492.0, (2R)-2-(4-cyano-2-(methylsulfonyl)phenyl)-N-(4-(2,6-dimethoxyphenyl)-5-(5-methyl-3-pyridinyl)-4H-1,2,4-triazol-3-yl)-2-hydroxyethanesulfonamide or (2S)-2-(4-cyano-2-(methylsulfonyl)phenyl)-N-(4-(2,6-dimethoxyphenyl)-5-(5-methyl-3-pyridinyl)-4H-1,2,4-triazol-3-yl)-2-hydroxyethanesulfonamide], the EC50 was 0.61 nM.

As to `COc1cccc(OC)c1-n1c(NS(=O)(=O)[C@H](C)[C@@H](OC)c2ccc(Cl)cn2)nnc1-c1cccnc1` (single isomer, unassigned) [Example 530.0, (1S,2R)-1-(5-chloro-2-pyridinyl)-N-(4-(2,6-dimethoxyphenyl)-5-(3-pyridinyl)-4H-1,2,4-triazol-3-yl)-1-methoxy-2-propanesulfonamide or (1R,2S)-1-(5-chloro-2-pyridinyl)-N-(4-(2,6-dimethoxyphenyl)-5-(3-pyridinyl)-4H-1,2,4-triazol-3-yl)-1-methoxy-2-propanesulfonamide], the EC50 is 48.5 nM.

For the compound `COc1cccc(OC)c1-n1c(NS(=O)(=O)[C@@H](C)[C@@](C)(F)c2ncc(C#N)cn2)nnc1-c1cncc(C)c1` (single isomer, unassigned) [Example 537.0], the EC50 was 57 nM.

On to `COc1cccc(OC)c1-n1c(NS(=O)(=O)[C@@H](C)[C@@](C)(F)c2ncc(C#N)cn2)nnc1-c1cncc(C)c1` (single isomer, unassigned) [Example 538.0], for which the 50% effective concentration (EC50) was determined as 4.5 nM.

As to `COc1cccc(OC)c1-n1c(NS(=O)(=O)[C@H](C)[C@@H](OC)c2ccc(C#N)cn2)nnc1-c1cncc(C)c1` (single isomer, unassigned) [Example 552.0], the EC50 was determined as 0.28 nM.

For `COc1cccc(OC)c1-n1c(NS(=O)(=O)[C@H](C)[C@@H](OC)c2ccc(C#N)cn2)nnc1-c1cncc(C)c1` (single isomer, unassigned) [Example 553.0], the EC50 turned out to be 41 nM.

For `COc1cccc(OC)c1-n1c(NS(=O)(=O)[C@H](C)[C@@H](OC)c2ccc(C#N)cn2)nnc1-c1cncc(C)c1` (single isomer, unassigned) [Example 554.0], the concentration for a half-maximal effect (EC50) turned out to be 2.7 nM.

In the case of `COc1cccc(OC)c1-n1c(NS(=O)(=O)[C@H](C)[C@@H](OC)c2ccc(C#N)cn2)nnc1-c1cncc(C)c1` (single isomer, unassigned) [Example 555.0], the EC50 turned out to be 41 nM.

For the compound `COc1cccc(OC)c1-n1c(NS(=O)(=O)[C@H](C)[C@@H](OC)c2ncc(Cl)cn2)nnc1-c1cncc(C)c1` (single isomer, unassigned) [Example 558.0], the concentration for a half-maximal effect (EC50) was determined as 30 nM.
